Columns and labels:
[1] = biological target: T1, Leucine-rich repeat serine/threonine-protein kinase 2 (Homo sapiens, UniProt Q5S007); assay: Inhibition of recombinant human LRRK2 WT using fluorescein-labeled LRRKtide as substrate in presence of ATP preincubated for 50 mins followed by anti-phospho-LRRKtide antibody addition and measured after 30 mins by TR-FRET based Lanthascreen kinase activity assay
[2] = biological target: T2, Leucine-rich repeat serine/threonine-protein kinase 2 (Homo sapiens, UniProt Q5S007, G2019S); assay: Inhibition of recombinant human GST tagged truncated LRRK2 G2019S mutant using fluorescein-labeled LRRKtide as substrate in presence of ATP preincubated for 50 mins followed by anti-phospho-LRRKtide antibody addition and measured after 30 mins by TR-FRET based Lanthascreen kinase activity assay
[3] = biological target: T2, Leucine-rich repeat serine/threonine-protein kinase 2; assay: Inhibition of LRRK2-pSer935 in LRRK2 G2019S mutant expressing human HEK293 cells and measured after 48 hrs by ICW assay; format: cell-based
[4] = biological target: T1, Leucine-rich repeat serine/threonine-protein kinase 2; assay: Inhibition of LRRK2-pSer935 in LRRK2 WT expressing human HEK293 cells and measured after 48 hrs by ICW assay; format: cell-based
[5] = biological target: T1, Leucine-rich repeat serine/threonine-protein kinase 2; assay: Binding affinity to human LRRK2 WT incubated for 2 hrs by TR-FRET based Lanthascreen kinase activity assay
[6] = biological target: T2, Leucine-rich repeat serine/threonine-protein kinase 2; assay: Binding affinity to human GST tagged truncated LRRK2 G2019S mutant incubated for 2 hrs by TR-FRET based Lanthascreen kinase activity assay
[7] = Aqueous solubility of the compound; format: physicochemical; details: buffer
[8] = biological target: T3, NUAK family SNF1-like kinase 1 (Homo sapiens) (UniProt O60285); assay: Inhibition of ARK5 (unknown origin) assessed as remaining activity using botin-anti-his and Lanthascreen Eu-streptavidin at 1 uM incubated for 2 hrs by TR-FRET based Lanthascreen kinase activity assay relative to control
T3 sequence (whole entry): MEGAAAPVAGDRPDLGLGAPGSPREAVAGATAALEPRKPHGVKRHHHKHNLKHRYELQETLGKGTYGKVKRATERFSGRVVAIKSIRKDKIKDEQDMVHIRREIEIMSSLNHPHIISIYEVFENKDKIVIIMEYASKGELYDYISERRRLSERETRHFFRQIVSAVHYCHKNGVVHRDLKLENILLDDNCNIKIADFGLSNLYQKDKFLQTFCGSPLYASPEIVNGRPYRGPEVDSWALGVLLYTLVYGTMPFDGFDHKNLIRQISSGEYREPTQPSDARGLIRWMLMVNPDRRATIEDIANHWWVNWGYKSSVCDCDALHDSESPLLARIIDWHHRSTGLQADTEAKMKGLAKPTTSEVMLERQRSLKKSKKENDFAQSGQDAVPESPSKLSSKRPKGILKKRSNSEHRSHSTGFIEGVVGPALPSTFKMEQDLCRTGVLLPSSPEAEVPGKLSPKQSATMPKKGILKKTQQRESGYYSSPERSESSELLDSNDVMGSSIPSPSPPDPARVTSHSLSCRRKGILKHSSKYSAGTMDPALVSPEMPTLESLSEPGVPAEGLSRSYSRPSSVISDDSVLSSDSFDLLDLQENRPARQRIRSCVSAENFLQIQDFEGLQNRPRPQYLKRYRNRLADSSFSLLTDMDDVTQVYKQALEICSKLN

[9] = biological target: Proto-oncogene tyrosine-protein kinase receptor Ret (Homo sapiens) (UniProt P07949); assay: Inhibition of RET (unknown origin) assessed as remaining activity using botin-anti-his and Lanthascreen Eu-streptavidin measured at 1 uM incubated for 2 hrs by TR-FRET based Lanthascreen kinase activity assay relative to control
Chain of Proto-oncogene tyrosine-protein kinase receptor Ret (Homo sapiens) (P07949 whole entry): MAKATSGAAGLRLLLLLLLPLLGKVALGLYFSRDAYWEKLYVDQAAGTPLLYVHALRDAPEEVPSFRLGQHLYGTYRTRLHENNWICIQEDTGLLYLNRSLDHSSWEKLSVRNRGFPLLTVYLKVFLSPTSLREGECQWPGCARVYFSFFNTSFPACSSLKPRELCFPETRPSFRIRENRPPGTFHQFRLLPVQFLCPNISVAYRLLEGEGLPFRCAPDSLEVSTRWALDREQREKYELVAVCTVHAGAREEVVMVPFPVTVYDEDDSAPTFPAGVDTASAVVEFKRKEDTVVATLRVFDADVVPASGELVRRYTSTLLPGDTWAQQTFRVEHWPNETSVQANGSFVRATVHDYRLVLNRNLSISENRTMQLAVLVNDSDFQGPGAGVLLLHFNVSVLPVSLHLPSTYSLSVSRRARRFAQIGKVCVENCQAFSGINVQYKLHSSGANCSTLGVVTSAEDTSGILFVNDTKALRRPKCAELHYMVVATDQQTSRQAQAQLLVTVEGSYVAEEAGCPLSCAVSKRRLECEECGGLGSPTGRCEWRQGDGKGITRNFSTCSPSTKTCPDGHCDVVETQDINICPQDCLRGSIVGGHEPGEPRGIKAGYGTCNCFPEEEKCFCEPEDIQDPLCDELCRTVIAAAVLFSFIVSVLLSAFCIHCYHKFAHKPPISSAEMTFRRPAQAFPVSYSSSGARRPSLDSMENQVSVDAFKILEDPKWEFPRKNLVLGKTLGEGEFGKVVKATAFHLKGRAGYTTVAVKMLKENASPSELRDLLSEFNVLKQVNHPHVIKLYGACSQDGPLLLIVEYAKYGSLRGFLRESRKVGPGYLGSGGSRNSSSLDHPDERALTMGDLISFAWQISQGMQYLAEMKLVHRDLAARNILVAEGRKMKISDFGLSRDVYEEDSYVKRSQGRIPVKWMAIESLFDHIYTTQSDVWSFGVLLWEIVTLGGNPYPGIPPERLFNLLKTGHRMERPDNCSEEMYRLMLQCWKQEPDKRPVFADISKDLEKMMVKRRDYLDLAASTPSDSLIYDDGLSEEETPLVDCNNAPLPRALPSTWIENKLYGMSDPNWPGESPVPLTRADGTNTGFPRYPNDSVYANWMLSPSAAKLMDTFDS

T2 sequence (Q5S007 whole entry G2019S, the tested form may be a part): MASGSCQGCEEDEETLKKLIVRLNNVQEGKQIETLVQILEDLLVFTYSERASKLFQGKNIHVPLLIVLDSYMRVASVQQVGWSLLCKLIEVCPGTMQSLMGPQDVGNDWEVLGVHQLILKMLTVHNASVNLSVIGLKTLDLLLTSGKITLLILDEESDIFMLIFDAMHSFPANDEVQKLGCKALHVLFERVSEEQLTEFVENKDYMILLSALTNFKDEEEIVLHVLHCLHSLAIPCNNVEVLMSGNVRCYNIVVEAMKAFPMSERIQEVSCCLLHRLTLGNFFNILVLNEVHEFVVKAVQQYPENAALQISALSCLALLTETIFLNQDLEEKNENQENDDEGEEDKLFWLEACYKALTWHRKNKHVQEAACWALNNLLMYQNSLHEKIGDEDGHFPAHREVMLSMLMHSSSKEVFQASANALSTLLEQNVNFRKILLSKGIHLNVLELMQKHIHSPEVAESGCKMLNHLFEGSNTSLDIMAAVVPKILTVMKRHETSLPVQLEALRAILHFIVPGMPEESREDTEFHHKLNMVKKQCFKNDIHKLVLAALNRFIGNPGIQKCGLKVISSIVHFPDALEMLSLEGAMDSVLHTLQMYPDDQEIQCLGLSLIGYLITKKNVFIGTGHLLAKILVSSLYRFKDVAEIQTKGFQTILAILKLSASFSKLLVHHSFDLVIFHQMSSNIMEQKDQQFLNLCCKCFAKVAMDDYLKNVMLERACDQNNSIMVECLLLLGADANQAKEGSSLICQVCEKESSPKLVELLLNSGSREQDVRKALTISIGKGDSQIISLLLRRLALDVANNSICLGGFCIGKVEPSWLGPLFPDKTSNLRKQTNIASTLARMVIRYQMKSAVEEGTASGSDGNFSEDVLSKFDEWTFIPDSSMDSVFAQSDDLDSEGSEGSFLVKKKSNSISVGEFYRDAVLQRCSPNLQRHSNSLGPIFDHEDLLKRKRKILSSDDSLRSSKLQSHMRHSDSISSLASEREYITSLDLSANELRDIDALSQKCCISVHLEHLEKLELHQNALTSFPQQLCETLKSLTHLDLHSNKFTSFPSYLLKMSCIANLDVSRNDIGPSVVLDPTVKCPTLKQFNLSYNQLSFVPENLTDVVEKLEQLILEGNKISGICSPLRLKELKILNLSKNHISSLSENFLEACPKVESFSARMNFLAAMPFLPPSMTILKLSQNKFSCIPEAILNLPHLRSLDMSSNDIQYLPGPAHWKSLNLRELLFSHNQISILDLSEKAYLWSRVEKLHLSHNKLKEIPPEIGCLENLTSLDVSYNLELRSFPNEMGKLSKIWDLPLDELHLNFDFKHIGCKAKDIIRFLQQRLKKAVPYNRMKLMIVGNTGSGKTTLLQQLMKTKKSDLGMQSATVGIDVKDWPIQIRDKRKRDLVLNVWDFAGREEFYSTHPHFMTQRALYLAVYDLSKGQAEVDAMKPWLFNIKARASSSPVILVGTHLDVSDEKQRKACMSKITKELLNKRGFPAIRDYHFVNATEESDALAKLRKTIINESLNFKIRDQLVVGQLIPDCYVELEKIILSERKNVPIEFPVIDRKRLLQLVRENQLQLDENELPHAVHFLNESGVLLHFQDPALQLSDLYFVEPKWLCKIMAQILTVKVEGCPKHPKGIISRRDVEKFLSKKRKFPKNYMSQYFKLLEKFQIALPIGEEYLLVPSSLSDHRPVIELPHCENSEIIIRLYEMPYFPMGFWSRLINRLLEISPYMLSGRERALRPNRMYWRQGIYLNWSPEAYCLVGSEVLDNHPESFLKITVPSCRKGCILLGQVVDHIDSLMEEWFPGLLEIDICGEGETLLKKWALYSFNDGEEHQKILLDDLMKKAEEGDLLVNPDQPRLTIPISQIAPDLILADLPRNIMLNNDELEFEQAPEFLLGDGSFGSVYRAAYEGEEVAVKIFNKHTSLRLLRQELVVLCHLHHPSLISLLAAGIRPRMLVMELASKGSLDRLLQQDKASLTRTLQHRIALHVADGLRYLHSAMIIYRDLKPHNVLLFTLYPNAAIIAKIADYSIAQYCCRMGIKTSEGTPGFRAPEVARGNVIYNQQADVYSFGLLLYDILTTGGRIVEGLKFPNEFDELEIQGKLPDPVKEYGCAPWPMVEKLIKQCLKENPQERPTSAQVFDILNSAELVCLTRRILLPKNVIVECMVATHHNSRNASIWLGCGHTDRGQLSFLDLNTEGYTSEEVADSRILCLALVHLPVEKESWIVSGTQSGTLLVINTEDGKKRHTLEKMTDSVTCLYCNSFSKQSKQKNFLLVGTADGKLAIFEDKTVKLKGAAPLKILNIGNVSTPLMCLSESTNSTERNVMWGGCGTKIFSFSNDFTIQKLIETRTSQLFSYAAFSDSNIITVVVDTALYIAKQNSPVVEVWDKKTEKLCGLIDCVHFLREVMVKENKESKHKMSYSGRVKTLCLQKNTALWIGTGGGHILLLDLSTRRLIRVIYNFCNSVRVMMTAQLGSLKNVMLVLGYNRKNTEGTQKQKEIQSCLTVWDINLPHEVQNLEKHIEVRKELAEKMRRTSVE
T1 sequence (Q5S007 whole entry, the tested form may be a part): as the sequence (Q5S007 whole entry G2019S, the tested form may be a part) above, with S2019G counted along it

Row | IC50 [1] [nM] | IC50 [2] [nM] | IC50 [3] [nM] | IC50 [4] [nM] | Ki [5] [nM] | Ki [6] [nM] | solubility [7] | Activity [8] [%] | Activity [9] [%] | Structure (SMILES)
1 | 43 | 35 | 120 | 280 |  |  |  |  |  | Cc1c(Nc2nc(N)c3c(C#N)c(N4CCC[C@H]4C)n(C)c3n2)cnn1CC(C)(C)O
2 | 5660 | 3080 |  |  | 136 | 212 |  |  |  | C[C@H]1CCCN1c1c(C#N)c2c(N)ncnc2n1C
3 |  |  |  |  | 239 | 1980 | Insoluble |  |  | Cn1c(-n2cccc2)c(C#N)c2c(N)ncnc21
4 | 19 | 12 | 65 | 140 |  |  |  |  |  | Cc1nn(C2CCOC2)cc1Nc1nc(N)c2c(C#N)c(N3CCC[C@H]3C)n(C)c2n1 (mixture of isomers)
5 | 75 | 43 | 260 | 310 | 2 | 3 |  |  |  | Cc1c(Nc2nc(N)c3c(C#N)c(N4CCC[C@H]4C)n(C)c3n2)cnn1C
6 |  |  |  |  | 538 | 794 |  |  |  | C[C@@H]1CCCN1c1c(C#N)c2c(N)nc(Nc3cnn(C)c3)cc2n1C
7 | 4620 | 3760 |  |  | 111 | 259 |  |  |  | CN(C)c1c(C#N)c2c(N)ncnc2n1C
8 | 2110 | 1290 |  |  | 63 | 75 |  | -7 | 8 | Cc1cn(C)nc1Nc1cc2c(c(N)n1)c(C#N)c(N1CCC[C@H]1C)n2C
9 | 6 | 6 |  |  | 0.2 | 0.4 |  | 97 | 101 | C[C@@H]1CCCN1c1c(C#N)c2c(N)nc(Nc3cn[nH]c3)nc2n1C
10 | 1480 | 1910 |  |  | 41 | 125 |  |  |  | Cn1c(N2CCCC2)c(C#N)c2c(N)ncnc21
11 | 44 | 28 | 180 | 260 |  |  |  |  |  | Cc1nn(C2CCOC2)cc1Nc1nc(N)c2c(C#N)c(N3CCC[C@H]3C)n(C)c2n1 (single isomer, unassigned)
12 |  | 15800 |  |  |  | 6720 |  |  |  | Nc1ncnc2nc[nH]c12 [ADENINE]
13 | 49 | 42 | 180 | 280 |  |  |  |  |  | Cc1nn(CC(C)(C)O)cc1Nc1nc(N)c2c(C#N)c(N3CCC[C@H]3C)n(C)c2n1
14 |  | 3530 |  |  | 423 | 243 |  |  |  | Cn1c(NCc2ccccc2)c(C#N)c2c(N)ncnc21
15 | 1260 | 483 |  |  | 30 | 33 |  |  |  | Cn1c(-c2ccccc2)c(C#N)c2c(N)ncnc21
16 | 38 | 30 | 120 | 190 | 1 | 2 |  |  |  | Cc1nn(C)cc1Nc1nc(N)c2c(C#N)c(N3CCC[C@H]3C)n(C)c2n1
17 | 57 | 51 | 250 | 410 |  |  |  |  |  | Cc1nn(CC2(O)COC2)cc1Nc1nc(N)c2c(C#N)c(N3CCC[C@H]3C)n(C)c2n1
18 | 34 | 21 | 54 | 190 |  |  |  |  |  | C[C@@H]1CCCN1c1c(C#N)c2c(N)nc(Nc3cn(C)nc3Cl)nc2n1C

Row | IC50 [1] [nM] | IC50 [2] [nM] | IC50 [3] [nM] | IC50 [4] [nM] | Ki [5] [nM] | Ki [6] [nM] | solubility [7] | Activity [8] [%] | Activity [9] [%] | Structure (SMILES)
19 | 6060 | 1740 |  |  | 145 | 120 |  |  |  | Cn1c(NCc2ccccc2F)c(C#N)c2c(N)ncnc21
20 | 166 | 201 |  |  | 4 | 14 |  |  |  | C[C@@H]1CCCN1c1[nH]c2ncnc(N)c2c1C#N
21 | 6 | 5 |  |  | 0.1 | 0.3 |  | 91 | 103 | C[C@@H]1CCCN1c1c(C#N)c2c(N)nc(Nc3cnn(C)c3)nc2n1C
22 | 248 | 217 |  |  | 6 | 13 |  |  |  | C[C@@H]1CCCN1c1c(C#N)c2c(N)nc(N)nc2n1C
23 | 15 | 11 |  |  | 0.4 | 0.7 |  | 93 | 64 | C[C@@H]1CCCN1c1c(C#N)c2c(N)ncnc2n1C
24 | 42 | 27 |  |  | 1 | 2 |  | -5 | 8 | Cc1n[nH]cc1Nc1nc(N)c2c(C#N)c(N3CCC[C@H]3C)n(C)c2n1
25 |  | 3350 |  |  |  | 1420 |  |  |  | CN(C)c1ncnc2nc[nH]c12 [DIMETHYLADENINE]
26 | 14400 | 8560 |  |  | 346 | 589 |  |  |  | Cn1c(N)c(C#N)c2c(N)ncnc21
27 | 47 | 37 | 190 | 300 |  |  |  |  |  | Cc1c(Nc2nc(N)c3c(C#N)c(N4CCC[C@H]4C)n(C)c3n2)cnn1C1COC1
28 | 572 | 159 |  |  | 14 | 11 |  |  |  | Cn1c(-c2cccc(F)c2F)c(C#N)c2c(N)ncnc21
29 | 508 | 358 | 460 | 910 |  |  |  |  |  | C[C@@H]1CCCN1c1c(C#N)c2c(N)nc(Nc3cn(C)nc3C(F)(F)F)nc2n1C
30 | 34 | 28 |  |  | 0.8 | 2 |  | 65 | 37 | C[C@@H]1CCCN1c1c(C#N)c2c(N)nccc2n1C
31 |  | 26600 |  |  |  | 11300 |  |  |  | Nc1ncnc2[nH]ncc12
32 | 6830 | 6390 |  |  | 164 | 439 |  |  |  | C[C@@H]1CCCN1c1cc2c(N)ncnc2n1C
33 | 38 | 25 | 140 | 240 |  |  |  |  |  | Cc1nn(C2COC2)cc1Nc1nc(N)c2c(C#N)c(N3CCC[C@H]3C)n(C)c2n1
34 | 234 | 206 |  |  | 6 | 13 |  | 3 | 27 | C[C@@H]1CCCN1c1c(C#N)c2c(N)nc(Nc3ccn(C)n3)cc2n1C
35 | 16 | 10 | 120 | 220 |  |  |  |  |  | Cc1c(Nc2nc(N)c3c(C#N)c(N4CCC[C@H]4C)n(C)c3n2)cnn1CC1(O)COC1
36 | 3190 | 2240 |  |  | 77 | 154 |  |  |  | C[C@@H]1CCCN1c1c(C(N)=O)c2c(N)ncnc2n1C

From ChEMBL document CHEMBL5038598, “Design and Synthesis of Pyrrolo[2,3-d]pyrimidine-Derived Leucine-Rich Repeat Kinase 2 (LRRK2) Inhibitors Using a Checkpoint Kinase 1 (CHK1)-Derived Crystallographic Surrogate” (J Med Chem, 2021)
